Source: publication PMC9675754, “Structure of the human heparan sulfate polymerase complex EXT1-EXT2” (Nature Communications, 2022)

B1: human EXT1 (exostosin-1), N-terminally truncated, aa29-aa746 (enzyme, UniProt Q16394 29-746, looked up)
chain: RASRSHSRREEHSGRNGLHHPSPDHFWPRFPDALRPFVPWDQLENEDSSVHISPRQKRDANSSIYKGKKCRMESCFDFTLCKKNGFKVYVYPQQKGEKIAESYQNILAAIEGSRFYTSDPSQACLFVLSLDTLDRDQLSPQYVHNLRSKVQSLHLWNNGRNHLIFNLYSGTWPDYTEDVGFDIGQAMLAKASISTENFRPNFDVSIPLFSKDHPRTGGERGFLKFNTIPPLRKYMLVFKGKRYLTGIGSDTRNALYHVHNGEDVVLLTTCKHGKDWQKHKDSRCDRDNTEYEKYDYREMLHNATFCLVPRGRRLGSFRFLEALQAACVPVMLSNGWELPFSEVINWNQAAVIGDERLLLQIPSTIRSIHQDKILALRQQTQFLWEAYFSSVEKIVLTTLEIIQDRIFKHISRNSLIWNKHPGGLFVLPQYSSYLGDFPYYYANLGLKPPSKFTAVIHAVTPLVSQSQPVLKLLVAAAKSQYCAQIIVLWNCDKPLPAKHRWPATAVPVVVIEGESKVMSSRFLPYDNIITDAVLSLDEDTVLSTTEVDFAFTVWQSFPERIVGYPARSHFWDNSKERWGYTSKWTNDYSMVLTGAAIYHKYYHYLYSHYLPASLKNMVDQLANCEDILMNFLVSAVTKLPPIKVTQKKQYKETMMGQTSRASRWADPDHFAQRQSCMNTFASWFGYMPLIHSQMRLDPVLFKDQVSILRKKYRDIERL
modifications: N-linked glycan at Asn330
notes: exostosin-1 (EXT1), human, residues 29-746, lacking the N-terminal transmembrane helix; Only obtained by co-expression with EXT2; Model built for aa89-aa728 with some loops missing; also called EXT1 WT; not shown: secreted alkaline phosphatase, N-terminal, cleaved; 8x His, C-terminal, kept
B2: human EXT2 (exostosin-2), N-terminally truncated, aa47-aa718 (enzyme, UniProt Q93063 47-718, looked up)
chain: PHSIESSNDWNVEKRSIRDVPVVRLPADSPIPERGDLSCRMHTCFDVYRCGFNPKNKIKVYIYALKKYVDDFGVSVSNTISREYNELLMAISDSDYYTDDINRACLFVPSIDVLNQNTLRIKETAQAMAQLSRWDRGTNHLLFNMLPGGPPDYNTALDVPRDRALLAGGGFSTWTYRQGYDVSIPVYSPLSAEVDLPEKGPGPRQYFLLSSQVGLHPEYREDLEALQVKHGESVLVLDKCTNLSEGVLSVRKRCHKHQVFDYPQVLQEATFCVVLRGARLGQAVLSDVLQAGCVPVVIADSYILPFSEVLDWKRASVVVPEEKMSDVYSILQSIPQRQIEEMQRQARWFWEAYFQSIKAIALATLQIINDRIYPYAAISYEEWNDPPAVKWGSVSNPLFLPLIPPQSQGFTAIVLTYDRVESLFRVITEVSKVPSLSKLLVVWNNQNKNPPEDSLWPKIRVPLKVVRTAENKLSNRFFPYDEIETEAVLAIDDDIIMLTSDELQFGYEVWREFPDRLVGYPGRLHLWDHEMNKWKYESEWTNEVSMVLTGAAFYHKYFNYLYTYKMPGDIKNWVDAHMNCEDIAMNFLVANVTGKAVIKVTPRKKFKCPECTAIDGLSLDQTHMVERSECINKFASVFGTMPLKVVEHRADPVLYKDDFPEKLKSFPNIGSL
modifications: N-linked glycan at Asn637
notes: exostosin-2 (EXT2), human, residues 47-718, lacking the N-terminal transmembrane helix; Only obtained by co-expression with EXT1; Model built for aa78-aa702 with some loops missing; also called EXT2 WT; not shown: secreted alkaline phosphatase, N-terminal, cleaved; 8x His, C-terminal, kept

Legend:
[1] = target: T1, EXT1-EXT2 complex (GlcNAc-T sites of EXT1 and EXT2) (Homo sapiens, UniProt Q16394+Q93063); assay: FACE glycosyl transfer assay; type: biochemical; conditions: acceptor Alexa Fluor 430-labelled dp8 5 uM; 1 mM UDP-GlcNAc; 10 mM MnCl2; pH 7.2; 30 C; GlcNAc-T domains of EXT1 and EXT2
T1 construct: same complex as P1; separate entry only because each chain has its own GlcNAc-T site; 1:1 heterodimer (EXT1 aa29-746, EXT2 aa47-718), C-terminal 8xHis kept, alkaline phosphatase fusion cut off with TEV; FreeStyle 293-F
T1 sequence (Q16394 29-746): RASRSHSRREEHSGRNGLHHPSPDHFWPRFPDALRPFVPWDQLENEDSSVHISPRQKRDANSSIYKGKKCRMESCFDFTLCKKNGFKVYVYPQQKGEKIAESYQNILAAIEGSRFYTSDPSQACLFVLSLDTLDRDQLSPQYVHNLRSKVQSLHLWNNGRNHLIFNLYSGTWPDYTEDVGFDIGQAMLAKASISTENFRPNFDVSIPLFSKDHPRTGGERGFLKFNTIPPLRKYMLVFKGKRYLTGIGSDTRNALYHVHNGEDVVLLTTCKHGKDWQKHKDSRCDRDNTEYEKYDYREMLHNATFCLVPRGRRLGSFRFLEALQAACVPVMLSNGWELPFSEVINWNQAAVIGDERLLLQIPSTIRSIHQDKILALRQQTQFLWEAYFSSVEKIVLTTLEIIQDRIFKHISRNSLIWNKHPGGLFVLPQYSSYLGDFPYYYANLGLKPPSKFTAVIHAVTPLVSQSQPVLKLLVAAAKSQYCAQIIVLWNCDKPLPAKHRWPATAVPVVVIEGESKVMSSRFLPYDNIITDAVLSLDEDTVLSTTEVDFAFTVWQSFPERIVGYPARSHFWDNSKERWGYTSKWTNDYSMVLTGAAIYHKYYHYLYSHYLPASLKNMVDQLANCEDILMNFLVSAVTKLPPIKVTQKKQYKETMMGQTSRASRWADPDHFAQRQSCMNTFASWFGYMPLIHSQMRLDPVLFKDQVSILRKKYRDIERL
T1 sequence (Q93063 47-718): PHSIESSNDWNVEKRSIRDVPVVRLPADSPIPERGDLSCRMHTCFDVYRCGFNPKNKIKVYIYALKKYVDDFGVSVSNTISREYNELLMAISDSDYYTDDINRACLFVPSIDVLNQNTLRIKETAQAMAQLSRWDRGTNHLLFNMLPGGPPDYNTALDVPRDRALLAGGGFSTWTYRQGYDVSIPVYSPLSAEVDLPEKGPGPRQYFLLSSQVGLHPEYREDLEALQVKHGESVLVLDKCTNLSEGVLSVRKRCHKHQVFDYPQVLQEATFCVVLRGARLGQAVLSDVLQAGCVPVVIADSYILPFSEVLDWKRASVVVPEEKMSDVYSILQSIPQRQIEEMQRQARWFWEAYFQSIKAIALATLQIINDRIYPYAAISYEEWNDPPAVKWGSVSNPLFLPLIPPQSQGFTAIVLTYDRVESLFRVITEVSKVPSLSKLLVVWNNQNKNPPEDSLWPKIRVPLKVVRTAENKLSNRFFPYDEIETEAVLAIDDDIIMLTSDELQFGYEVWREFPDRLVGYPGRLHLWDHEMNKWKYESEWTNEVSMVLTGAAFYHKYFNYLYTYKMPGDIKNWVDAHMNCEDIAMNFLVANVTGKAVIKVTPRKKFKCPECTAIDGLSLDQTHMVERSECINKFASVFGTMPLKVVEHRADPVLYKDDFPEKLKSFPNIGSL

[2] = target: T2, EXT1-EXT2 complex (EXT1 GlcA-T site) (Homo sapiens, UniProt Q16394); assay: FACE glycosyl transfer assay; type: biochemical; conditions: acceptor Alexa Fluor 430-labelled dp9 5 uM; 1 mM UDP-GlcA; 10 mM MnCl2; pH 7.2; 30 C; EXT1 GlcA-T domain
T2 construct: 1:1 heterodimer of Golgi-luminal parts, transmembrane helix removed (EXT1 aa29-746, EXT2 aa47-718), C-terminal 8xHis kept, secreted alkaline phosphatase fusion cut off with TEV; co-expressed in FreeStyle 293-F; about 160 kDa; with Exostosin-2
T2 sequence (Q16394 29-746): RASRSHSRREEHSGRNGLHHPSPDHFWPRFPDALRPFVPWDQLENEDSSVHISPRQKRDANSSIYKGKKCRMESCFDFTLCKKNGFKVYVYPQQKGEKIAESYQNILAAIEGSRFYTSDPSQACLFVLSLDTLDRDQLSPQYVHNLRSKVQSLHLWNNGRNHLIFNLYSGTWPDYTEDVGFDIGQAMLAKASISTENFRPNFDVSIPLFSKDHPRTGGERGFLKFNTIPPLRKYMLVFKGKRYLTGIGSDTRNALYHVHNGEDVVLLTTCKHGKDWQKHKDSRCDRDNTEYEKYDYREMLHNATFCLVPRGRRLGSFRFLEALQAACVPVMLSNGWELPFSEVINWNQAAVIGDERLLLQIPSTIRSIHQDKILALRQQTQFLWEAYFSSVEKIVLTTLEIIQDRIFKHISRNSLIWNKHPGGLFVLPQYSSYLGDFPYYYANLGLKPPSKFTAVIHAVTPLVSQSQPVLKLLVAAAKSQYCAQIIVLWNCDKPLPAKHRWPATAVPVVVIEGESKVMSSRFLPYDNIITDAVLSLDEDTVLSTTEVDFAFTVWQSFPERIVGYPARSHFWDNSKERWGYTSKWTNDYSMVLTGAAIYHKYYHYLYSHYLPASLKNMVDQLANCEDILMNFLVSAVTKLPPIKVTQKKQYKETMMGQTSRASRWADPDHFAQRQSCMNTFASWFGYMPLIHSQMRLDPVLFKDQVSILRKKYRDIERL
T2 sequence (Q93063 47-718 partner): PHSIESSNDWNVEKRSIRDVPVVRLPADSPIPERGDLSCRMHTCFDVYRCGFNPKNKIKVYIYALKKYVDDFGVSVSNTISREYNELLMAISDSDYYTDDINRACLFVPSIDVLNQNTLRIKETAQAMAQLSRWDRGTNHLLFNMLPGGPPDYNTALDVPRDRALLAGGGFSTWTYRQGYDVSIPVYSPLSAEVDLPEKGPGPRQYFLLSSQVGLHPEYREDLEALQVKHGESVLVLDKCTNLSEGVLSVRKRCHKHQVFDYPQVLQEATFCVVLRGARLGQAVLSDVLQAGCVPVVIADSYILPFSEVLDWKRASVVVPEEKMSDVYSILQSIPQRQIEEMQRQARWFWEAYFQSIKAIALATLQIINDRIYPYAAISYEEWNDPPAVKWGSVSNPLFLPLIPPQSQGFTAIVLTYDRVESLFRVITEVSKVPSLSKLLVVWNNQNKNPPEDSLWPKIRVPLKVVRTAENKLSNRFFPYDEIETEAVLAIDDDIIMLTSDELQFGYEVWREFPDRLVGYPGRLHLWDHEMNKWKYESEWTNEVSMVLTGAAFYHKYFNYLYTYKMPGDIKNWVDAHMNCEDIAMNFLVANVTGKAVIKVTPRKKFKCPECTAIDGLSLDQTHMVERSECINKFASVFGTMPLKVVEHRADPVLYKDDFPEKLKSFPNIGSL

[3] = target: T2, EXT1-EXT2 complex (EXT1 GlcA-T site); assay: cryo-EM structure, […] A; type: binding; conditions: EXT1 GlcA-T active site; UDP-GlcA, UDP-GlcNAc and MnCl2 1 mM each added, only UDP seen; pH 7.2
[4] = target: B2; assay: cryo-EM structure; 0.4 mg/mL purified, co-expressed EXT1-EXT2 with 1 mM UDP-GlcNAc, 1 mM UDP-GlcA and 1 mM MnCl2; single-particle analysis, 2.8 Å; conditions: both partners purified
[5] = target: B1; assay: as above; conditions: both partners purified
[6] = target: T3, human EXT1 aa29-aa746 D162N/D164N (human, UniProt Q16394 29-746, D162N | D164N); assay: negative stain EM; purified complex diluted to 0.02 mg/mL in buffer A (50 mM Tris pH 7.8, 150 mM NaCl); mica-carbon flotation; conditions: both partners purified
T3 construct: exostosin-1 (EXT1), human, residues 29-746, with point mutations in the GlcA-T domain; also called EXT1 D162N/D164N; source: FreeStyle 293-F cells, co-expressed with wild-type EXT2, purified as the wild-type complex; not shown: secreted alkaline phosphatase, N-terminal, cleaved; 8x His, C-terminal, kept
T3 sequence (looked up): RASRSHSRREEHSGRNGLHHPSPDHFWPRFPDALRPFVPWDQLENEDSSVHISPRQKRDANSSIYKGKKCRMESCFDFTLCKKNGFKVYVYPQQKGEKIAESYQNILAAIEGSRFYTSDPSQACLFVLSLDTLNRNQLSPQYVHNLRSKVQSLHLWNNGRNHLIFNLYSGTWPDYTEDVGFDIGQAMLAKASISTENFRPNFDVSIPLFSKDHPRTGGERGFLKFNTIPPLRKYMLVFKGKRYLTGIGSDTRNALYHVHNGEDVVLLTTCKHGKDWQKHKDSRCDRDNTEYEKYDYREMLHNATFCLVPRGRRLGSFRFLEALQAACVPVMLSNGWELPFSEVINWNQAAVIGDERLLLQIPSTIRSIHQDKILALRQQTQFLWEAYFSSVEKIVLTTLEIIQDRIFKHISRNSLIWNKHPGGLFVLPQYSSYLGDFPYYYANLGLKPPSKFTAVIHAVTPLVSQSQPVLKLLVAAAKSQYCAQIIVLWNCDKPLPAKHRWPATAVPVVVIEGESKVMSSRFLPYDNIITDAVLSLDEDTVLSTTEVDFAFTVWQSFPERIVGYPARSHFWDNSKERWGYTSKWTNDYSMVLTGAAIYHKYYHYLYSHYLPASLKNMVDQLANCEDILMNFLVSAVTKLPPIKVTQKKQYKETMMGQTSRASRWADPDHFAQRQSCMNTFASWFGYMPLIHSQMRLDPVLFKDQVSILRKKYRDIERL

Molecule: CC(=O)N[C@H]1[C@@H](OP(=O)(O)OP(=O)(O)OC[C@H]2O[C@@H](n3ccc(=O)[nH]c3=O)[C@H](O)[C@@H]2O)O[C@H](CO)[C@@H](O)[C@@H]1O [UDP-GlcNAc]
FACE glycosyl transfer assay [1]: the transfer of a GlcNAc residue onto dp8 led to a slower migration rate

Molecule: O=C(O)[C@H]1O[C@H](OP(=O)(O)OP(=O)(O)OC[C@H]2O[C@@H](n3ccc(=O)[nH]c3=O)[C@H](O)[C@@H]2O)[C@H](O)[C@@H](O)[C@@H]1O [UDP-GlcA]
FACE glycosyl transfer assay [2]: the addition of a GlcA moiety onto dp9 enhanced the migration rate

Molecule: O=c1ccn([C@@H]2O[C@H](COP(=O)(O)OP(=O)(O)O)[C@@H](O)[C@H]2O)c(=O)[nH]1 [UDP]
cryo-EM structure, 2.8 A [3]: we found an additional EM density that fits a UDP ligand

Molecule: B1
stoichiometry N [4]: 1

Molecule: B2
binding result [5]: binds
binding result [6]: binds
